Measurements from PubChem BioAssay (NCI).
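Growth conditions: 96-well plates. Treatment: test compound, 48 hours, 5 concentrations. Analysis: linear interpolation between bracketing concentrations; unreached endpoints set to highest concentration. GI50: concentration for 50% inhibition of growth. The concentration for full growth arrest is given as TGI.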

Legend:
Experiment in all cases: NCI-60 cell line screen, 48 h
[1] = system: A549 NSCLC
[2] = system: CCRF-CEM leukemia
[3] = system: OVCAR-3 ovarian
[4] = system: SR leukemia
[5] = system: KM12 colon
[6] = system: HCT-15 colon
[7] = system: HCC-2998 colon
[8] = system: PC-3 prostate
[9] = system: K-562 leukemia
[10] = system: RXF 393 renal

| Structure (SMILES) | TGI [1] [µM] | TGI [2] [µM] | TGI [3] [µM] | TGI [4] [µM] | TGI [5] [µM] | TGI [6] [µM] | TGI [7] [µM] | TGI [8] [µM] | TGI [9] [µM] | TGI [10] [µM] | GI50 [1] [µM] | GI50 [2] [µM] | GI50 [3] [µM] | GI50 [4] [µM] | GI50 [5] [µM] | GI50 [6] [µM] | GI50 [7] [µM] | GI50 [8] [µM] | GI50 [9] [µM] | GI50 [10] [µM] |
| --- | --- | --- | --- | --- | --- | --- | --- | --- | --- | --- | --- | --- | --- | --- | --- | --- | --- | --- | --- | --- |
| O=C1C=C(N2CCN(c3ccccn3)CC2)C(=O)c2c(O)ccc(O)c21 | 40.7 | > 36.8 | 20.3 | > 50.7 | > 46.4 | 39.1 | 43.1 | > 56.2 | 36.2 | 43.4 | – | – | – | – | – | – | – | – | – | – |
| Nc1ncc(/C=N/O)c(NCC2(CO)CC(CCc3ccccc3)C2)n1 (stereo unspecified) | 25.6 | 50.2 | 30.7 | > 100 | 31.6 | 29.9 | 30.4 | 26.8 | 31.7 | 29 | – | – | – | – | – | – | – | – | – | – |
| Oc1[nH]c2ccccc2c1/C=c1/cc2c(c(-c3ccc(C(F)(F)F)cc3)n1)=Nc1ccccc1-2 | 28.8 | 16.4 | 7.69 | 11.3 | 12.2 | 15.8 | 24.4 | 47.4 | 14.9 | 15.3 | 4.79 | 3.06 | 2.36 | 1.27 | 2.16 | 3.59 | 9.32 | 2.59 | 2.57 | 3.08 |
| COC(=O)C(NC(=O)CSc1nnc(COc2ccc(Cl)cc2)n1-c1ccccc1)C(C)C (stereo unspecified) | > 100 | > 100 | 31.5 | > 100 | 38.5 | > 100 | 38.7 | 50.9 | > 100 | 57.5 | – | – | – | – | – | – | – | – | – | – |
| C/C(=N\Nc1ccccc1)C(CN(C)C)C(c1ccccc1)c1c(O)c2ccccc2oc1=O (stereo unspecified) | > 100 | > 100 | > 100 | > 100 | > 100 | > 100 | > 100 | > 100 | > 100 | > 100 | – | – | – | – | – | – | – | – | – | – |
| Cc1ccc2c(c1)CC1(C2=O)[C@H](c2ccccc2)C2C(=O)c3ccc(C)cc3C2[C@H]1c1ccccc1 (stereo partly specified) | > 100 | > 100 | > 100 | > 100 | > 100 | > 100 | > 100 | > 100 | > 100 | > 100 | – | – | – | – | – | – | – | – | – | – |
| O=C1OI(C#Cc2ccccc2)c2ccccc21 | 39.7 | 4.01 | 10.6 | 5.53 | 9.31 | 11.2 | 21.4 | 18.3 | 6.7 | 97.5 | – | – | – | – | – | – | – | – | – | – |
| Cc1cn([C@H]2[C@@H](CO)C[C@H]2O)c(=O)[nH]c1=O | > 100 | > 100 | > 100 | > 100 | > 100 | > 100 | > 100 | > 100 | > 100 | > 100 | – | – | – | – | – | – | – | – | – | – |
| NC(=S)N/N=C\CC(O)(C(F)(F)F)C(F)(F)F | > 10 | > 10 | > 10 | > 10 | > 10 | > 10 | > 10 | > 10 | > 10 | > 10 | – | – | – | – | – | – | – | – | – | – |
| CCN(CC)CCN(C)CCc1ccc(Br)cc1 | > 100 | > 100 | > 100 | > 100 | > 100 | > 100 | > 100 | > 100 | > 100 | > 100 | – | – | – | – | – | – | – | – | – | – |
| CNc1ccc(Cl)cc1S(=O)(=O)c1ccccc1[N+](=O)[O-] | > 100 | > 100 | > 100 | > 100 | – | > 100 | > 100 | > 100 | > 100 | > 100 | – | – | – | – | – | – | – | – | – | – |
| COc1ccc(/C=C2\CCC(CNc3ccc(Br)cc3)C2=O)cc1 (stereo unspecified) | > 100 | > 100 | > 100 | 87.2 | > 100 | > 100 | > 100 | > 100 | > 100 | > 100 | – | – | – | – | – | – | – | – | – | – |
| CCCNC(=O)CCC(C)[C@H]1CCC2C3C(C[C@H](OC(C)=O)[C@@]21C)[C@@]1(C)CCC2(C[C@H]1C[C@H]3OC(C)=O)OOC1(CCCCC1)OO2 (stereo partly specified) | 2.82 | 4.95 | 5.3 | 4.7 | 3.56 | > 100 | > 43.3 | 7.08 | > 60.8 | 27.7 | – | – | – | – | – | – | – | – | – | – |
| O=C1CC2(CCNCC2)C(=O)N1N1CCOCC1 | > 100 | > 100 | > 100 | > 100 | > 100 | > 100 | > 100 | > 100 | > 100 | > 100 | – | – | – | – | – | – | – | – | – | – |
| CCOC(=O)/C(C#N)=C/N(CC)/N=C/c1ccccc1 | > 100 | > 100 | > 100 | > 100 | > 100 | > 100 | > 100 | > 100 | > 100 | > 100 | – | – | – | – | – | – | – | – | – | – |
| NC(=O)C1=CC2C3C=CC2(O)C(=O)OC3O1 (stereo unspecified) | > 100 | 9.8 | 24.7 | 5.48 | 11.4 | 13.9 | 26.7 | 37.7 | > 100 | 8.23 | – | – | – | – | – | – | – | – | – | – |

| Structure (SMILES) | TGI [1] [µM] | TGI [2] [µM] | TGI [3] [µM] | TGI [4] [µM] | TGI [5] [µM] | TGI [6] [µM] | TGI [7] [µM] | TGI [8] [µM] | TGI [9] [µM] | TGI [10] [µM] | GI50 [1] [µM] | GI50 [2] [µM] | GI50 [3] [µM] | GI50 [4] [µM] | GI50 [5] [µM] | GI50 [6] [µM] | GI50 [7] [µM] | GI50 [8] [µM] | GI50 [9] [µM] | GI50 [10] [µM] |
| --- | --- | --- | --- | --- | --- | --- | --- | --- | --- | --- | --- | --- | --- | --- | --- | --- | --- | --- | --- | --- |
| CC(C)C1CC(CO)(CNc2cc(Cl)nc(N)n2)C1 (stereo unspecified) | > 100 | > 100 | > 100 | > 100 | > 100 | > 100 | > 100 | > 100 | > 100 | > 100 | – | – | – | – | – | – | – | – | – | – |
| CC(C)=CCC[C@@H](C)c1c2[nH]c3ccccc3sc-2c(C)c(=O)c1=O | 35.6 | > 42.4 | > 45.1 | > 61.6 | > 35.2 | > 75 | > 36.8 | > 75 | > 75 | 32.7 | – | – | – | – | – | – | – | – | – | – |
| COc1ccc(C(=O)c2ccc(-n3cc(/C=C/[N+](=O)[O-])c4ccccc43)cc2)cc1 | > 100 | > 20.2 | 27.1 | > 100 | 55.2 | 41.1 | 48.9 | 49.9 | > 100 | 10.8 | – | – | – | – | – | – | – | – | – | – |
| Cc1ccc(S(=O)(=O)N/N=C2\C3CC4CC(C3)C2C4)cc1 (stereo unspecified) | > 100 | > 100 | > 100 | > 100 | > 100 | > 100 | > 100 | > 100 | > 100 | > 100 | – | – | – | – | – | – | – | – | – | – |
| COC(=O)c1ccc(/C=C2\CCc3ccccc3C2=O)cc1 | > 100 | > 100 | > 100 | > 100 | > 100 | > 100 | > 100 | > 100 | > 100 | > 100 | – | – | – | – | – | – | – | – | – | – |
| O=S1(=O)CCN(c2ccccc2CC(c2c[nH]c3ccccc23)c2c[nH]c3ccccc23)CC1 | > 78.2 | 11.1 | 20.9 | 20.1 | 13.5 | 36.3 | 8.09 | 13.2 | 45.1 | 28.8 | – | – | – | – | – | – | – | – | – | – |
| COc1cc(-n2cc(-c3cc(O)c(C/C=C(\C)CCC=C(C)C)c(O)c3)nn2)cc2c1O[C@]1(C)CC[C@@H](O)C(C)(C)[C@H]1C2 | 20.7 | > 43.3 | 14.3 | > 100 | 31.9 | 9.7 | 19 | > 84.3 | – | 0.337 | 1.12 | 0.194 | 2.58 | 0.0317 | 2.47 | 1.08 | 2.45 | 0.598 | – | 0.0214 |
| CC(C)(C)OC(=O)N1CCc2c(n(C/C=C/c3ccccc3)[nH]c2=O)C1 | > 100 | > 100 | > 100 | > 100 | > 100 | > 100 | > 100 | > 100 | > 100 | > 100 | – | – | – | – | – | – | – | – | – | – |
| Cc1ccc(/C=C2\CN(C)CC3C2=NC(=S)NC3c2ccc(C)cc2)cc1 (stereo unspecified) | > 100 | 54.5 | > 100 | > 100 | > 100 | > 100 | 33.4 | > 100 | > 100 | > 87.1 | – | – | – | – | – | – | – | – | – | – |
| COC(=O)/C=C/c1ccc2c(c1)CC1(Cc3ccccc3C1)C2 | > 100 | 57.3 | > 100 | 58.1 | > 100 | > 100 | > 100 | > 100 | > 100 | > 100 | – | – | – | – | – | – | – | – | – | – |
| COc1ccc(C2=C(OC(=O)N(C)C)c3cccn3-c3cc(Cl)ccc3S2)cc1 | > 10 | > 10 | – | > 10 | > 10 | > 10 | > 10 | > 10 | > 10 | > 10 | – | – | – | – | – | – | – | – | – | – |
| COc1ccc(-c2nc(-c3cnccn3)n(C3OC(CO)C(O)C(O)C3O)n2)cc1 (stereo unspecified) | > 100 | > 100 | > 100 | > 100 | > 100 | > 100 | > 100 | > 100 | > 100 | > 100 | – | – | – | – | – | – | – | – | – | – |
| CC1(C)[C@@H]2CC[C@@]1(C)[C@H](O)[C@@H]2SCc1ccccc1 | 48.6 | 96.6 | 31.8 | > 100 | 36.4 | 29.7 | 36.6 | 50.4 | > 100 | 33 | – | – | – | – | – | – | – | – | – | – |
| O=P(O)(O)CN1CCNCCN(CP(=O)(O)O)CCNCC1 | > 100 | > 100 | > 100 | 4.16 | > 100 | > 100 | > 100 | > 100 | > 100 | > 100 | – | – | – | – | – | – | – | – | – | – |
| CC(=O)O[C@H]1C(=O)N(c2cc3c4ccccc4ccc3c3ccccc23)[C@@H]1c1ccccc1 | 61.6 | > 100 | 4.86 | 40.3 | 27.1 | > 100 | 26.8 | 65.3 | > 100 | 8.95 | – | – | – | – | – | – | – | – | – | – |
| CC1=C2C(=O)c3ccccc3C(=O)[C@H]2C[C@@H](N2CCCCCC2=O)O1 | 39.7 | 20.3 | 38.2 | 25.7 | 30.7 | 47.5 | 31.4 | 44.4 | 53.4 | 55.9 | – | – | – | – | – | – | – | – | – | – |
